We go through 20 molecules from ChEMBL document CHEMBL4350980, “Synthesis and structure-activity relationships of small-molecular di-basic esters, amides and carbamates as flaviviral protease inhibitors” (Eur J Med Chem, 2019).

Calls of active or inactive are those of the source. No cut-off for these calls is given here. A value given as a limit tells only on which side of the number the result lay.

The target of data set [1] is Genome polyprotein (West Nile virus) (UniProt P06935). As to the kind of experiment: Inhibition of West Nile virus His-tagged NS2B cofactor domain-NS3 protease expressed in Escherichia coli at 1 mM using 2-Abz-Gly-Leu-Lys-Arg-Gly-Gly-(3-NO2)-Tyr-NH2 as substrate preincubated with enzyme for 15 mins followed by substrate addition measured for every 1 sec for 15 mins by fluorescence microplate reader based HPLC analysis relative to control.

For data set [2], the target named is T1, Prothrombin (Homo sapiens, UniProt P00734). As to the kind of experiment: Inhibition of thrombin (unknown origin) at 500 uM using Boc-Val-Pro-Arg-AMC as substrate preincubated with enzyme for 15 mins followed by addition of substrate by fluorescence plate reader analysis relative to control.
In data set [3] the target is T2, Trypsin (Homo sapiens, UniProt P07477+P07478+P35030). The data set is described as follows: Inhibition of trypsin (unknown origin) at 1 mM using Boc-Val-Pro-Arg-AMC as substrate preincubated with enzyme for 15 mins followed by addition of substrate by fluorescence plate reader analysis relative to control. In kind it is protein assay.
The target of data set [4] is Genome polyprotein (dengue virus type 2) (UniProt P29990). The data set is described as follows: Inhibition of dengue virus serotype 2 His-tagged NS2B cofactor domain-NS3 protease expressed in Escherichia coli at 1 mM using 2-Abz-Nle-Lys-Arg-Arg-Ser-(3-NO2)-Tyr-NH2 as substrate preincubated with enzyme for 15 mins followed by substrate addition measured for every 1 sec for 15 mins by fluorescence plate reader based HPLC analysis relative to control.

Data set [5] addresses Genome polyprotein (West Nile virus) (UniProt P06935). As to the kind of experiment: Inhibition of West Nile virus His-tagged NS2B cofactor domain-NS3 protease expressed in Escherichia coli at 50 uM using 2-Abz-Gly-Leu-Lys-Arg-Gly-Gly-(3-NO2)-Tyr-NH2 as substrate preincubated with enzyme for 15 mins followed by substrate addition measured for every 1 sec for 15 mins by fluorescence microplate reader based HPLC analysis relative to control.

The target in data set [6] is T2, Trypsin. As to the kind of experiment: Inhibition of trypsin (unknown origin) using Boc-Val-Pro-Arg-AMC as substrate preincubated with enzyme for 15 mins followed by addition of substrate by fluorescence plate reader analysis. In kind it is protein assay.
Data set [7] deals with T2, Trypsin. The data set is described as follows: Inhibition of trypsin (unknown origin) at 50 uM using Boc-Val-Pro-Arg-AMC as substrate preincubated with enzyme for 15 mins followed by addition of substrate by fluorescence plate reader analysis relative to control. In kind it is protein assay.
The target of data set [8] is T1, Prothrombin. The data set is described as follows: Inhibition of thrombin (unknown origin) at 25 uM using Boc-Val-Pro-Arg-AMC as substrate preincubated with enzyme for 15 mins followed by addition of substrate by fluorescence plate reader analysis relative to control.
In data set [9] the target is Genome polyprotein (dengue virus type 2) (UniProt P29990). The data set is described as follows: Inhibition of dengue virus serotype 2 His-tagged NS2B cofactor domain-NS3 protease expressed in Escherichia coli at 50 uM using 2-Abz-Nle-Lys-Arg-Arg-Ser-(3-NO2)-Tyr-NH2 as substrate preincubated with enzyme for 15 mins followed by substrate addition measured for every 1 sec for 15 mins by fluorescence plate reader based HPLC analysis relative to control.

Data set [10] in a line: Stability of compound in phosphate buffer at pH 7.5 to 11. In kind it is physicochemical.
Data set [11] is described as follows: Stability of compound in TRIS assay buffer at pH 7.5 to 9. The format is physicochemical.
Data set [12] concerns the target Genome polyprotein (dengue virus type 2) (UniProt P29990). As to the kind of experiment: Reversible covalent binding affinity at dengue virus serotype 2 His-tagged NS2B cofactor domain-NS3 protease expressed in Escherichia coli assessed as acyl-enzyme adduct formation at 100 uM incubated for 5 to 24 hrs by ESI-MS analysis.
For data set [13] the target is unchanged. As to the kind of experiment: Time-dependent inhibition of dengue virus serotype 2 His-tagged NS2B cofactor domain-NS3 protease expressed in Escherichia coli at 50 uM using 2-Abz-Nle-Lys-Arg-Arg-Ser-(3-NO2)-Tyr-NH2 as substrate preincubated with enzyme for 20 to 40 mins followed by substrate addition measured for every 1 sec for 15 mins by fluorescence plate reader based HPLC analysis.

Data set [14] has the same target. The data set is described as follows: Reversible covalent binding affinity at dengue virus serotype 2 His-tagged NS2B cofactor domain-NS3 protease expressed in Escherichia coli assessed as acyl-enzyme adduct formation at 100 uM incubated for 2 hrs by ESI-MS analysis.
Data set [15] concerns the target T1, Prothrombin. The data set is described as follows: Inhibition of thrombin (unknown origin) using Boc-Val-Pro-Arg-AMC as substrate preincubated with enzyme for 15 mins followed by addition of substrate by fluorescence plate reader analysis.
Data set [16] concerns dengue virus type 2. The data set is described as follows: Reversible covalent binding affinity at dengue virus serotype 2 His-tagged NS2B cofactor domain-NS3 protease S135A mutant expressed in Escherichia coli assessed as acyl-enzyme adduct formation at 100 uM incubated for 24 hrs by ESI-MS analysis.
Data set [17] has as its target Genome polyprotein (dengue virus type 2) (UniProt P29990). As to the kind of experiment: Reversible covalent binding affinity at dengue virus serotype 2 His-tagged NS2B cofactor domain-NS3 protease expressed in Escherichia coli assessed as acyl-enzyme adduct formation at 100 uM incubated for 24 hrs by ESI-MS analysis.
For data set [18] the target is unchanged. The data set is described as follows: Time-dependent inhibition of dengue virus serotype 2 His-tagged NS2B cofactor domain-NS3 protease expressed in Escherichia coli at 200 uM using 2-Abz-Nle-Lys-Arg-Arg-Ser-(3-NO2)-Tyr-NH2 as substrate preincubated with enzyme for 20 to 40 mins followed by substrate addition measured for every 1 sec for 15 mins by fluorescence plate reader based HPLC analysis.

Genome polyprotein (West Nile virus), sequence (P06935 whole entry, the tested form may be a part): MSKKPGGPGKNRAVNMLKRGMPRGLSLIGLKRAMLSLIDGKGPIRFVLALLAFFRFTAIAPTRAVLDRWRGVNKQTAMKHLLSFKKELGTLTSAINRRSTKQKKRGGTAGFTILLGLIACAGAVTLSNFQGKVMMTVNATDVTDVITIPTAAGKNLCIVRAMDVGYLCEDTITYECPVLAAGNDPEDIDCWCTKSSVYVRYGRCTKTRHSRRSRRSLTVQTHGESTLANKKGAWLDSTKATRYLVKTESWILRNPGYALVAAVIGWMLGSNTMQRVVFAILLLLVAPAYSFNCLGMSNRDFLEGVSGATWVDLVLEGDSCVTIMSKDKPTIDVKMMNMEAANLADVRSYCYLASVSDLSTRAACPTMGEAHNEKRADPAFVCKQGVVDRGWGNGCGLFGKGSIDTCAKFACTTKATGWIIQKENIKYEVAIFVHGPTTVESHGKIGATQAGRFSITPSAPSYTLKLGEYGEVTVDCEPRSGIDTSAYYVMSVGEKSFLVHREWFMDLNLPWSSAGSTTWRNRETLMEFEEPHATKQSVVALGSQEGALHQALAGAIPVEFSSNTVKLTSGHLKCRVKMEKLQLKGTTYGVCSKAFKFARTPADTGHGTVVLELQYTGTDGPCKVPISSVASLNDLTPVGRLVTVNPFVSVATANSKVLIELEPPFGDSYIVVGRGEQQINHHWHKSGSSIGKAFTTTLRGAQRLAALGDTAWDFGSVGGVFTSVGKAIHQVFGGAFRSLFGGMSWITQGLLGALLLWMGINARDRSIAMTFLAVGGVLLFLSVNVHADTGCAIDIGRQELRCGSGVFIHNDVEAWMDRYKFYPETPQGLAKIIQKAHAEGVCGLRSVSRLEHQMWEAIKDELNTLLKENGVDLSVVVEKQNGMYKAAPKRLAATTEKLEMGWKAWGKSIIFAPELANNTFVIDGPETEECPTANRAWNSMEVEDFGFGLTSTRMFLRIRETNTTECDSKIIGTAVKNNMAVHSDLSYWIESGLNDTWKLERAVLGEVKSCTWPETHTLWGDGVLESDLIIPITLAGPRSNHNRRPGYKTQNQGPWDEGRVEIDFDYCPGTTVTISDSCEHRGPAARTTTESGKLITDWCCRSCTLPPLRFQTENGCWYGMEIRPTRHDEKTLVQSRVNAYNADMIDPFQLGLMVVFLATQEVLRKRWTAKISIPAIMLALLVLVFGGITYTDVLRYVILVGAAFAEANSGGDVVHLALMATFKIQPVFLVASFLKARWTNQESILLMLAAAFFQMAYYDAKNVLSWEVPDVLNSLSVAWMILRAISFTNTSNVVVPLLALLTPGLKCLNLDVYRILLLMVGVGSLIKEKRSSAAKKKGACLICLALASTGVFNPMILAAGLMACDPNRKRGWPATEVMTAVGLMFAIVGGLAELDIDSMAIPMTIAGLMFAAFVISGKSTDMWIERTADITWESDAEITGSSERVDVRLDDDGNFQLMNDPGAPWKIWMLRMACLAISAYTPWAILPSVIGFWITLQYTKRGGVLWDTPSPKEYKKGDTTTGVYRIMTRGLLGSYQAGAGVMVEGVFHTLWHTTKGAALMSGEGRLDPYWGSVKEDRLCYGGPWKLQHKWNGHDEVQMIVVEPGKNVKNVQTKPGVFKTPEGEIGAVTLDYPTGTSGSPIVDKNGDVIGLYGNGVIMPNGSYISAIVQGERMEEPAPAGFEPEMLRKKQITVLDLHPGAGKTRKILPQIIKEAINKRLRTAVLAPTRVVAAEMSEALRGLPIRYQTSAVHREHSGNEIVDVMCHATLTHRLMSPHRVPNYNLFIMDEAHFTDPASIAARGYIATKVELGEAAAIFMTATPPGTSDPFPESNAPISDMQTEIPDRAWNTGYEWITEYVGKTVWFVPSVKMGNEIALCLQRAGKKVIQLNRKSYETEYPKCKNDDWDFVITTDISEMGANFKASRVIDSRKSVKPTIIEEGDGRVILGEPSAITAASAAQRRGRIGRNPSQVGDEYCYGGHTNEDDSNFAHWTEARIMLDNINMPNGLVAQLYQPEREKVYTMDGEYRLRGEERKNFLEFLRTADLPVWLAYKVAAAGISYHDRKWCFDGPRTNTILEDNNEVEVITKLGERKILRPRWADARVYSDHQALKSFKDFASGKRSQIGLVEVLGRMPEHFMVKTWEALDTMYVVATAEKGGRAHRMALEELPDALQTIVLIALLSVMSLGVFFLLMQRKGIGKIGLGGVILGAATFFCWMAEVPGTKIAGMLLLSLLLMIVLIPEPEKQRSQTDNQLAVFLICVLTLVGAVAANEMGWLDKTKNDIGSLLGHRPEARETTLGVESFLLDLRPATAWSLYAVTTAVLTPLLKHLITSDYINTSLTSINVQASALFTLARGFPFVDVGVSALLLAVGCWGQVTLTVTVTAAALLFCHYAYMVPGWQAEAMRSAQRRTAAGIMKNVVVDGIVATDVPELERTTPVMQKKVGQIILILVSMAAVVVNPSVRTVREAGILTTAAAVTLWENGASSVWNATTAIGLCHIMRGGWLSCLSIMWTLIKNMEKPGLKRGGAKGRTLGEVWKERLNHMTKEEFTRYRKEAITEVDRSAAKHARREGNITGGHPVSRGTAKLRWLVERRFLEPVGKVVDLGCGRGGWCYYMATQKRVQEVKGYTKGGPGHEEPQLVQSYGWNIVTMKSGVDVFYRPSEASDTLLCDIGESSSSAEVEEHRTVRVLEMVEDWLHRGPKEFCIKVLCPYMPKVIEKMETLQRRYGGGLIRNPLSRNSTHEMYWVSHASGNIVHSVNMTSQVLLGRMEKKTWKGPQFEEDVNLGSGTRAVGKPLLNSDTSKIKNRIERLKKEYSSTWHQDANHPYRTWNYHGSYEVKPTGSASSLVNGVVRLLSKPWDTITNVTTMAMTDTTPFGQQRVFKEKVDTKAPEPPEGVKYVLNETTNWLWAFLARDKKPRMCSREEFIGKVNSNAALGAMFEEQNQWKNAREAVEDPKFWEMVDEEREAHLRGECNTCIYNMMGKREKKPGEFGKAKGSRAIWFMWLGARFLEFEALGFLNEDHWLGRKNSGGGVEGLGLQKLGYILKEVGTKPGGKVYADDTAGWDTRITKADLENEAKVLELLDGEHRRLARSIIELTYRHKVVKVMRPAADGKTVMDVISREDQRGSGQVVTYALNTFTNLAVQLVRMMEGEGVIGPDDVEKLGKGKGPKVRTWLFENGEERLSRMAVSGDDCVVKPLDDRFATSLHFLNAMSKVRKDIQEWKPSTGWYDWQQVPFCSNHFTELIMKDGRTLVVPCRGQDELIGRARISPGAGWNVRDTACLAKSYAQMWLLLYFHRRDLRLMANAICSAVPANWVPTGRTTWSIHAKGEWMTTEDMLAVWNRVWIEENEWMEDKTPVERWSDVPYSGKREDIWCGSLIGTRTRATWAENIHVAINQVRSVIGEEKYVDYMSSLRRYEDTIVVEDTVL

Consider `CN(C(=O)Oc1ccc(CN)cc1)c1ccc(CN)cc1`, for which the inhibition in [1] turned out to be 62.9%; in data set [2] it was 12.2%; in [3], 43.9%; in data set [4], 31.3%.

As for `N=C(N)NCCCOC(=O)c1ccc(NC(=N)N)cc1`, the inhibition is < 5% in [5], 78.9% in [7], 22.8% in [8] and 56.8% in data set [9]. In [6], this molecule registered an IC50 of 9840 nM. Further, the Stability entry in data set [10] and in data set [11] was “Stable” throughout.

Turning to `N=C(N)Nc1ccc(NC(=O)c2ccc(NC(=N)N)cc2)cc1`, the inhibition in data set [5] stood at 17.9%; in [7] it was 87.2%; in [8], 23.9%; in data set [9] it was 23.2%. Besides, the result in data set [12] was inactive. Besides, the TDI result in data set [13] is “inactive”. The Stability entry in [10] and in data set [11] was “Stable” in each case.

For `CN(C)C(=O)Oc1cc(NC(=N)N)ccc1C(=O)Nc1ccc(CN)cc1`, the inhibition came out at 73.3% in data set [1], 12.4% in data set [2], 43.7% in data set [3] and 74.4% in data set [4].

As for `N=C(N)NCc1ccc(NC(=O)Oc2ccc(N)cc2)cc1`, the inhibition stood at 68.8% in [1], 44.4% in [2], 98.4% in [3] and 60.8% in [4].

As for `CN(C(=O)Oc1ccc(N)cc1)c1ccc(N)cc1`, the inhibition in data set [1] was found to be 68%; in data set [2] it was 72.7%; in data set [3], 95.9%; in [4] it was 29.8%.

On to `Nc1ccc(NC(=O)Oc2ccc(N)cc2)cc1`, for which the inhibition in data set [1] turned out to be 72.8%; in data set [2], 83.3%; in [3] it was 99.2%; in data set [4] it was 33.7%.

In the case of `CN(C)C(=O)COC(=O)Cc1ccc(OC(=O)c2ccc(NC(=N)N)cc2)cc1` [CAMOSTAT], the inhibition in data set [5] stood at 12.6%; in [7], 100%; in [8], 94%; in data set [9], 19.6%. This molecule registered an IC50 in data set [6] of 3.5 nM.

In the case of `CN(C(=O)Oc1ccc(CN)cc1)c1ccc(N)cc1`, the inhibition was 59.3% in [1], 46.9% in [2], 95.6% in [3] and 22.9% in data set [4].

For the molecule `N=C(N)NCCCCOC(=O)c1ccc(NC(=N)N)cc1`, the inhibition in data set [5] was determined as 17.1%; in [7], 84%; in data set [8], 27.3%; in data set [9] it was 49%. Further, the concentration for half-maximal inhibition (IC50) in data set [6] was found to be 8270 nM.

Consider `N=C(N)Nc1ccc(OC(=O)c2ccc(N)cc2)cc1`, for which the inhibition was < 5% in [5], 101% in data set [7], 76.7% in data set [8] and 45.4% in data set [9]. Also, the IC50 in data set [6] was 2.78 nM; in [15], 17600 nM. For the same molecule, the result in [14] and in [16] was inactive. The TDI result in data set [13] is “Active”. Further, the outcome in data set [17] was Active.

Regarding `CN(C)C(=O)Oc1ccc(NC(=N)N)cc1C(=O)Nc1ccc(CN)cc1`, the inhibition in data set [1] was found to be 76.1%; in data set [2] it was 24.3%; in data set [3], 19.3%; in data set [4], 56%.

As for `N=C(N)Nc1ccc(C(=O)Oc2cccc(NC(=N)N)c2)cc1`, the inhibition in [5] amounted to 17.5%; in [7], 100%; in data set [8], 100%; in data set [9] it was 51.3%.

Regarding `N=C(N)Nc1ccc(C(=O)Nc2cccc(NC(=N)N)c2)cc1`, the inhibition in [5] was < 5%; in data set [7], 94.6%; in data set [8] it was 16.4%; in data set [9] it was 36.8%. In addition, in data set [6], the IC50 came out at 23900 nM.

For `CN(C)C(=O)Oc1cc(NC(=N)N)ccc1NC(=O)c1ccc(NC(=N)N)cc1`, the inhibition in data set [1] came out at 23.9%; in data set [2], 67.8%; in data set [3] it was 99.2%; in data set [4] it was 20.2%.

On to `N=C(N)NCCCC(=O)Oc1ccc(NC(=N)N)cc1`, for which the inhibition was < 5% in data set [5], 18.3% in data set [7], 13.2% in data set [8] and 4.2% in data set [9].

For the molecule `N=C(N)NCCCCC(=O)Oc1ccc(NC(=N)N)cc1`, the inhibition was < 5% in [5], 65.9% in [7], 72.5% in [8] and 4.6% in data set [9].

On to `N=C(N)Nc1ccc(C(=O)Oc2ccc(CN)cc2)cc1`, for which the inhibition in [5] was 36.5%; in [7], 101%; in [8], 92.5%; in data set [9], 40.1%. Besides, the figures for the IC50 in [6] and in data set [15] were 1.56 nM and 530 nM, respectively. In addition, in data set [13], the TDI result is “Active”.

As to `N=C(N)Nc1ccc(NC(=O)Oc2ccc(N)cc2)cc1`, the inhibition in [5] stood at 61.9%; in data set [7], 101%; in data set [8], 12.1%; in data set [9] it was 52%; in data set [1], 61.9%; in data set [2], 12.1%. Besides, the inhibition in data set [3] was determined as 101%; in data set [4], 52%. Besides, the outcome in data set [12] was inactive. In data set [6], the IC50 came out at 46300 nM. Further, the TDI result in data set [18] is “inactive”.

Consider `N=C(N)Nc1ccc(C(=O)Oc2ccc(N)cc2)cc1`, for which the inhibition in data set [5] was < 5%; in [7], 102%; in data set [8], 97.1%; in data set [9], 8.8%. In addition, the IC50 turned out to be 28 nM in [6] and 800 nM in [15]. In addition, the Stability result in data set [10] and in data set [11] was “Stable” in each case.

One may read the inhibition as the drop in the measured response relative to a control, in per cent. What is called IC50 is the concentration that gives 50% inhibition.
